In this experiment the target is T1, BRD4 bromodomains (Homo sapiens, UniProt O60885).
T1 construct: fused on or other part: T7 phage capsid protein (phage-display fusion; the phage DNA is read out by qPCR)
Put plainly: BROMOscan bromodomain competition binding assay (DiscoveRx). Conditions: Kd from 11 compound concentrations ranging from 0 to 10 μM, read-out: BROMOscan Relative Activity. An outline of the steps: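 Compounds in 0.1% DMSO/0.9% MEG competed with a solid-phase acetylated peptide for T7 phage-fused BRD4 bromodomains, with the retained bromodomain measured by qPCR.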

Structures are written as SMILES.

`Cc1noc(C)c1-c1ccc2nc(-c3cnn(CC(=O)N(C)C)c3)nc(NCc3cccc(Cl)c3)c2c1` [Example 98, 2-(4-(4-((3-chlorobenzyl)amino)-6-(3,5-dimethylisoxazol-4-yl)quinazolin-2-yl)-1H-pyrazol-1-yl)-N,N-dimethylacetamide]: the Kd is below 500 nM. Then `CN(C)CCN1CCN(c2nc(NCc3cccc(Cl)c3)c3cc(-c4ccn(C)c(=O)c4)ccc3n2)CC1` [Example 116, 4-(4-((3-chlorobenzyl)amino)-2-(4-(2-(dimethylamino)ethyl)piperazin-1-yl)quinazolin-6-yl)-1-methylpyridin-2(1H)-one], with above 5000 nM. As for `Cc1cncc(CNc2nc(N3CCN(CCN(C)C)CC3)nc3ccc(-c4c(C)noc4C)cc23)c1` [Example 115, 2-(4-(2-(dimethylamino)ethyl)piperazin-1-yl)-6-(3,5-dimethylisoxazol-4-yl)-N-((5-methylpyridin-3-yl)methyl)quinazolin-4-amine], the Kd is below 500 nM.

Take `Cc1noc(C)c1-c1ccc2nc(NCCN3CCN(C)CC3)nc(NCc3cccc(Cl)c3)c2c1` [Example 11, N4-(3-chlorobenzyl)-6-(3,5-dimethylisoxazol-4-yl)-N2-(2-(4-methylpiperazin-1-yl)ethyl)quinazoline-2,4-diamine]: the Kd was below 500 nM. As to `Cc1noc(C)c1-c1ccc2nc(-c3cnn(CC(C)(C)O)c3)nc(N3CCN(C(=O)NC4CC4)C[C@@H]3c3ccccc3)c2c1` [Example 322, (S)—N-cyclopropyl-4-(6-(3,5-dimethylisoxazol-4-yl)-2-(1-(2-hydroxy-2-methylpropyl)-1H-pyrazol-4-yl)quinazolin-4-yl)-3-phenylpiperazine-1-carboxamide], the Kd was below 500 nM. Then `Cc1noc(C)c1-c1ccc2nc(C(=O)NC3CCN(S(C)(=O)=O)CC3)nc(NCc3cccc(Cl)c3)c2c1` [Example 201, 4-((3-chlorobenzyl)amino)-6-(3,5-dimethylisoxazol-4-yl)-N-(1-(methylsulfonyl)piperidin-4-yl)quinazoline-2-carboxamide], with below 500 nM; and `Cc1noc(C)c1-c1ccc2nc(N3CCc4[nH]ncc4C3)nc(N3CCOC[C@@H]3c3ccccc3)c2c1` [Example 282, (S)-4-(6-(3,5-dimethylisoxazol-4-yl)-2-(1,4,6,7-tetrahydro-5H-pyrazolo[4,3-c]pyridin-5-yl)quinazolin-4-yl)-3-phenylmorpholine], with below 500 nM; and `Cc1noc(C)c1-c1ccc2nc(N3CCN(C(=O)c4cnn(C)c4)CC3)nc(NCc3cccc(Cl)c3)c2c1` [Example 18, (4-(4-((3-chlorobenzyl)amino)-6-(3,5-dimethylisoxazol-4-yl)quinazolin-2-yl)piperazin-1-yl)(1-methyl-1H-pyrazol-4-yl)methanone], with below 500 nM. Then `Cc1noc(C)c1-c1ccc2nc(N3CCN(C(=O)N(C)C)CC3)nc(NCc3cccc(Cl)c3)c2c1` [Example 244, 4-(4-((3-chlorobenzyl)amino)-6-(3,5-dimethylisoxazol-4-yl)quinazolin-2-yl)-N,N-dimethylpiperazine-1-carboxamide], with below 500 nM. On to `Cc1noc(C)c1-c1ccc2nc(C(=O)N3CCc4[nH]ncc4C3)nc(NCc3cccc(Cl)c3)c2c1` [Example 287, (4-((3-chlorobenzyl)amino)-6-(3,5-dimethylisoxazol-4-yl)quinazolin-2-yl)(1,4,6,7-tetrahydro-5H-pyrazolo[4,3-c]pyridin-5-yl)methanone], for which the Kd was below 500 nM.

Regarding `CC(=O)N1CCN(c2nc(NCc3cncc(Cl)c3)c3cc(-c4c(C)noc4C)ccc3n2)CC1` [Example 195, 1-(4-(4-(((5-chloropyridin-3-yl)methyl)amino)-6-(3,5-dimethylisoxazol-4-yl)quinazolin-2-yl)piperazin-1-yl)ethanone], the Kd is below 500 nM. For the compound `Cc1noc(C)c1-c1ccc2nc(C(=O)NC3CCOCC3)nc(NC3(c4cccc(Cl)c4)CC3)c2c1` [Example 247, 4-((1-(3-chlorophenyl)cyclopropyl)amino)-6-(3,5-dimethylisoxazol-4-yl)-N-(tetrahydro-2H-pyran-4-yl)quinazoline-2-carboxamide], the Kd was below 500 nM. For `Cc1noc(C)c1-c1ccc2nc(-c3cnn(CCN(C)C)c3)nc(NCc3cccc(Cl)c3)c2c1` [Example 60, N-(3-chlorobenzyl)-2-(1-(2-(dimethylamino)ethyl)-1H-pyrazol-4-yl)-6-(3,5-dimethylisoxazol-4-yl)quinazolin-4-amine], the Kd is below 500 nM. Then `CNC(=O)CN1CCN(c2nc(NCc3cccc(Cl)c3)c3cc(-c4c(C)noc4C)ccc3n2)CC1` [Example 53, 2-(4-(4-((3-chlorobenzyl)amino)-6-(3,5-dimethylisoxazol-4-yl)quinazolin-2-yl)piperazin-1-yl)-N-methylacetamide], with below 500 nM. As for `Cc1noc(C)c1-c1ccc2nc(C(=O)N(C)C3CCN(C)CC3)nc(NCc3cccc(Cl)c3)c2c1` [Example 211, 4-((3-chlorobenzyl)amino)-6-(3,5-dimethylisoxazol-4-yl)-N-methyl-N-(1-methylpiperidin-4-yl)quinazoline-2-carboxamide], the Kd was below 500 nM. With `Cc1noc(C)c1-c1ccc2nc(N3CCN(CCCN(C)C)CC3)nc(NCc3cccc(Cl)c3)c2c1` [Example 16, N-(3-chlorobenzyl)-2-(4-(3-(dimethylamino)propyl)piperazin-1-yl)-6-(3,5-dimethylisoxazol-4-yl)quinazolin-4-amine], the Kd was below 500 nM. Regarding `Cn1cc(-c2ccc3nc(-c4cnn(CCO)c4)nc(NCc4cncc(Cl)c4)c3c2)ccc1=O` [Example 143, 5-(4-(((5-chloropyridin-3-yl)methyl)amino)-2-(1-(2-hydroxyethyl)-1H-pyrazol-4-yl)quinazolin-6-yl)-1-methylpyridin-2(1H)-one], the Kd was below 500 nM.

Consider `Cn1cc(-c2ccc3nc(-c4cnn(CCO)c4)nc(NCc4cccc(Cl)c4)c3c2)ccc1=O` [Example 114, 5-(4-((3-chlorobenzyl)amino)-2-(1-(2-hydroxyethyl)-1H-pyrazol-4-yl)quinazolin-6-yl)-1-methylpyridin-2(1H)-one], for which the Kd lay within 500 to 5000 nM. As to `Cc1noc(C)c1-c1ccc2nc(Cl)nc(Nc3ccc(Cl)cc3)c2c1` [Example 151, 2-chloro-N-(4-chlorophenyl)-6-(3,5-dimethylisoxazol-4-yl)quinazolin-4-amine], the Kd was above 5000 nM. Then `Cc1noc(C)c1-c1ccc2nc(N3CCN(CCN(C)C)CC3)nc(N3CCC3c3ccccc3)c2c1` (stereo not shown) [Example 179, 2-(4-(6-(3,5-dimethylisoxazol-4-yl)-4-(2-phenylazetidin-1-yl)quinazolin-2-yl)piperazin-1-yl)-N,N-dimethylethanamine], with below 500 nM; and `Cc1noc(C)c1-c1ccc2nc(C(=O)NCC3CN(C)C3)nc(NCc3cncc(Cl)c3)c2c1` [Example 233, 4-(((5-chloropyridin-3-yl)methyl)amino)-6-(3,5-dimethylisoxazol-4-yl)-N-((1-methylazetidin-3-yl)methyl)quinazoline-2-carboxamide], with below 500 nM; and `Cc1noc(C)c1-c1ccc2nc(N3CCc4c(cnn4C)C3)nc(NCc3cccc(Cl)c3)c2c1` [Example 278, N-(3-chlorobenzyl)-6-(3,5-dimethylisoxazol-4-yl)-2-(1-methyl-1,4,6,7-tetrahydro-5H-pyrazolo[4,3-c]pyridin-5-yl)quinazolin-4-amine], with 500 to 5000 nM. Then `Cc1noc(C)c1-c1ccc2nc(-c3cnn(C)c3)nc(NCc3cccc(Cl)c3)c2c1` [Example 49, N-(3-chlorobenzyl)-6-(3,5-dimethylisoxazol-4-yl)-2-(1-methyl-1H-pyrazol-4-yl)quinazolin-4-amine], with below 500 nM. Then `Cc1noc(C)c1-c1ccc2ncnc(Nc3ccc(Cl)cc3)c2c1` [Example 158, N-(4-chlorophenyl)-6-(3,5-dimethylisoxazol-4-yl)quinazolin-4-amine], with 500 to 5000 nM; and `Cc1noc(C)c1-c1ccc2nc(N3CCN(CCN(C)C)CC3)nc(NCc3ccc(F)cc3)c2c1` [Example 99, 2-(4-(2-(dimethylamino)ethyl)piperazin-1-yl)-6-(3,5-dimethylisoxazol-4-yl)-N-(4-fluorobenzyl)quinazolin-4-amine], with 500 to 5000 nM. With `Cn1cc(-c2ccc3nc(N4CCN(CCO)CC4)nc(NCc4cccc(Cl)c4)c3c2)ccc1=O` [Example 121, 5-(4-((3-chlorobenzyl)amino)-2-(4-(2-hydroxyethyl)piperazin-1-yl)quinazolin-6-yl)-1-methylpyridin-2(1H)-one], the Kd was below 500 nM. Then `Cc1noc(C)c1-c1ccc2nc(NCc3ncc[nH]3)nc(NCc3cccc(Cl)c3)c2c1` [Example 178, N2-((1H-imidazol-2-yl)methyl)-N4-(3-chlorobenzyl)-6-(3,5-dimethylisoxazol-4-yl)quinazoline-2,4-diamine], with below 500 nM; and `Cc1noc(C)c1-c1ccc2nc(N3CCC(CN(C)C)CC3)nc(NCc3cccc(Cl)c3)c2c1` [Example 41, N-(3-chlorobenzyl)-2-(4-((dimethylamino)methyl)piperidin-1-yl)-6-(3,5-dimethylisoxazol-4-yl)quinazolin-4-amine], with below 500 nM; and `Cc1noc(C)c1-c1ccc2nc(N3CCN(CC(C)(C)O)CC3)nc(NCc3cncc(Cl)c3)c2c1` [Example 136, 1-(4-(4-(((5-chloropyridin-3-yl)methyl)amino)-6-(3,5-dimethylisoxazol-4-yl)quinazolin-2-yl)piperazin-1-yl)-2-methylpropan-2-ol], with below 500 nM. Then `Cc1noc(C)c1-c1ccc2nc(C(=O)NC3CCN(C)CC3)cc(NCc3cccc(Cl)c3)c2c1` [Example 228, 4-((3-chlorobenzyl)amino)-6-(3,5-dimethylisoxazol-4-yl)-N-(1-methylpiperidin-4-yl)quinoline-2-carboxamide], with below 500 nM; and `Cc1ccncc1CNC(=O)c1nc(NCc2cccc(Cl)c2)c2cc(-c3c(C)noc3C)ccc2n1` [Example 187, 4-((3-chlorobenzyl)amino)-6-(3,5-dimethylisoxazol-4-yl)-N-((4-methylpyridin-3-yl)methyl)quinazoline-2-carboxamide], with below 500 nM.

The record behind these values is patent publication US11028079B2 (ConverGene LLC, priority 2015, dated 2021).
